Test results from US7939540B2, “4-(3-benzoylaminophenyl)-6,7-dimethoxy-2-methylaminoquinazoline derivatives” (Eisai R&D Management Co., Ltd., priority 2006, dated 2011).
Read-outs that look alike come from different tables or passages of the source.

Assays:
CYP1A1 = details: human, hepatocytes
Method: (§1) Cryopreserved human hepatocytes (XenoTeck) were rapidly thawed at 37° C., and viable cells were obtained using Hepatocytes Isolation Kit (Nosan Corporation). After cells prepared were diluted with ice cold William's Medium E (10% FBS, +PSG) to give a concentration of 5×10^5 viable cells/mL, the cells were seeded onto a 48-well collagen-coated plate (BD Biosciences) at a concentration of 1×10^5 cells/cm^2 and cultured at 37° C. in 5% CO2 for 24 hours. Then, the medium was replaced with Hepato-STIM (registered trade mark: BD Biosciences) (+EGF, PSG, −FBS), and the cells were further cultured at 37° C. in 5% CO2 for 24 hours. […] The culture medium containing test compound, β-NF or Rif was replaced every 24 hours. Test compound, β-NF and Rif were each dissolved in dimethyl sulfoxide (DMSO: Wako Pure Chemical Industries, Ltd.), and culture medium containing test compound (final concentrations; 1, 3 and 10 μM), β-NF (final concentration; 10 μM) or Rif (final concentration; 10 μM) was prepared by adding them to Hepato-STIM(+EGF, PSG, −FBS), respectively. Final concentration of DMSO was set to be 0.1%, and culture medium containing 0.1% DMSO was used for control. After completion of the treatment, the cells were washed with PBS once, and total RNA was purified using Total RNA Purification Kit (Applied Biosystems). The purified total RNA was subjected to reverse transcription reaction using TaqMan Reverse Transcription Reagents (Applied Biosystems) to synthesize cDNA, where oligo dT was used as a primer. The reaction was carried out using Gene Amp PCR system 9700 at 25° C. for 10 minutes, followed by at 48° C. for 60 minutes. Then, reverse transcriptase was deactivated at 95° C. for 10 minutes. The levels of mRNA for CYP1A1 and GAPDH were quantified using SYBR Green PCR Core Reagents Kit (Applied Biosystems), and those for CYP1A2 and that of CYP3A4 were measured using Taqman PCR Core Reagents Kit (Applied Biosystems) and ABI Prism 7900 Sequence Detection System (Applied Biosystems).
(§2) * A cycle consisting of denaturation, annealing, and elongation reaction, was repeated 50 times.
(§3) The ability of a test compound to induce CYP1A1 was calculated as follows: Ability of a test compound to induce CYP1A1 (%)={[(amount of mRNA of CYP1A1 in test compound treated cells)/(amount of mRNA of GAPDH in test compound treated cells)]/[(amount of mRNA of CYP1A1 in control cells)/(amount of mRNA of GAPDH in control cells)]−1}/{[(amount of mRNA of CYP1A1 in positive control treated cells)/(amount of mRNA of GAPDH in positive control treated cells)]/[(amount of mRNA of CYP1A1 in control cells)/(amount of mRNA of GAPDH in control cells)]−1}×100

CYP1A2 = details: human, hepatocytes
Method: as §1, §2, §3

CYP3A4 = experiment: Induction potency of drug metabolizing enzyme (CYP) using cryopreserved human hepatocytes, CYP3A4 mRNA; details: approximately 48 hours, mRNA normalised to GAPDH, positive control rifampicin 10 μM
Method: as §1, §2, §3

CYPs = experiment: Induction potency on CYPs in cryopreserved human hepatocytes, overall statement; assay type: in vitro ADME; details: cryopreserved human hepatocytes, 1, 3 and 10 μM; result in words
Method: The ability to induce CYP1A2 or CYP3A4 was calculated in the same manner described above.

Row | Compound | Induction Ability compared to positive control (%) CYP1A1 (CYP1A1; 1 μM) | Induction Ability compared to positive control (%) CYP1A1 (CYP1A1; 3 μM) | Induction Ability compared to positive control (%) CYP1A1 (CYP1A1; 10 μM) | Induction Ability compared to positive control (%) CYP1A2 (CYP1A2; 1 μM) | Induction Ability compared to positive control (%) CYP1A2 (CYP1A2; 3 μM) | Induction Ability compared to positive control (%) CYP1A2 (CYP1A2; 10 μM) | Induction Ability compared to positive control (%) CYP3A4 (CYP3A4; test compound 1 μM) | Induction Ability compared to positive control (%) CYP3A4 (CYP3A4; test compound 3 μM) | Induction Ability compared to positive control (%) CYP3A4 (CYP3A4; test compound 10 μM) | induction potency on CYPs (CYPs)
1 | CNC(=O)c1cccc(C(=O)Nc2cccc(-c3nc(NC)nc4cc(OC)c(OC)cc34)c2)c1 [Example 16, N-[3-(6,7-dimethoxy-2-methylaminoquinazolin-4-yl)phenyl]-N′-methylisophthalamide] | 0.0% | 0.3% | 1.0% | 0.2% | 3.9% | 1.2% | −0.7% | −0.3% | 2.7% | 
2 | CCCOC(=O)c1cccc(C(=O)Nc2cccc(-c3nc(NC)nc4cc(OC)c(OC)cc34)c2)c1 [Example 14, propyl N-[3-(6,7-dimethoxy-2-methylaminoquinazolin-4-yl)phenyl]isophthalic acid] | 0.2% | 0.3% | 0.7% | 1.2% | 3.0% | 1.8% | 0.7% | −0.1% | −1.5% | 
3 | CNc1nc(-c2cccc(NC(=O)c3cccc(C(=O)OCCOC)c3)c2)c2cc(OC)c(OC)cc2n1 [Example 21, N-[3-(6,7-dimethoxy-2-methylaminoquinazolin-4-yl)phenyl]isophthalamic acid 2-methoxyethyl ester] | 0.0% | 0.0% | 0.1% | 0.6% | −0.3% | 0.4% | −1.2% | −1.6% | −2.0% | 
4 | CNc1nc(-c2cccc(NC(=O)c3ccccc3)c2)c2cc(OC)c(OC)cc2n1 [Comparative example, 4-(3-benzoylaminophenyl)-6,7-dimethoxy-2-methylaminoquinalozine, reference compound] | 2.1% | 18.5% | 51.9% | 7.2% | 34.3% | 35.0% | 1.6% | 10.8% | 17.0% | induction potency on CYPs was observed
5 | CNc1nc(-c2cccc(NC(=O)c3ccc(C(=O)OCCOC)cc3)c2)c2cc(OC)c(OC)cc2n1 [Example 20, N-[3-(6,7-dimethoxy-2-methylaminoquinazolin-4-yl)phenyl]terephthalamic acid 2-methoxyethyl ester] | 0.1% | 0.1% | 0.8% | −1.7% | −1.6% | −1.2% | −2.0% | −2.1% | −2.2% | 
6 | CNC(=O)c1ccc(C(=O)Nc2cccc(-c3nc(NC)nc4cc(OC)c(OC)cc34)c2)cc1 [Example 5, N-[3-(6,7-dimethoxy-2-methylaminoquinazolin-4-yl)phenyl]-N′-methylterephthalamide] | 0.0% | 0.0% | 0.0% | −2.0% | −1.3% | 0.5% | −6.9% | −6.2% | −2.0% | 
7 | CCOC(=O)c1ccc(C(=O)Nc2cccc(-c3nc(NC)nc4cc(OC)c(OC)cc34)c2)cc1 [Example 4, ethyl N-[3-(6,7-dimethoxy-2-methylaminoquinazolin-4-yl)phenyl]terephthalamic acid] | 0.1% | 0.4% | 1.5% | −1.1% | 0.6% | 6.1% | −5.6% | −6.1% | 0.1% | 
8 | CNc1nc(-c2cccc(NC(=O)c3ccc(C(=O)OC(C)C)cc3)c2)c2cc(OC)c(OC)cc2n1 [Example 7, isopropyl N-[3-(6,7-dimethoxy-2-methylaminoquinazolin-4-yl)phenyl]terephthalamic acid] | 0.2% | 1.8% | 5.7% | 0.5% | 1.5% | 3.1% | −6.6% | −9.8% | −11.9% | 
